Reference: patent US9062026B2, “Fused pyrimidines and substituted quinazolines as inhibitors of p97” (Cleave Biosciences, Inc., priority 2012, dated 2015)
Where two headings read alike, the source gives them in different places.

How the values were obtained:
p97 = p97 (Homo sapiens (Human), UniProt P55072); assay: P97 ATPase biochem assay (ADP Glo); format: biochemical
Experimental: The ATPase assay is performed according the following protocol: Purified enzyme (20 nM p97), substrate (20 μM ATP) and a dose titration of compounds are mixed in buffer (50 mM TRIS pH 7.5, 20 mM MgCl2, 0.02% TX-100, 1 mM DTT, 0.2% (v/v) glycerol) and incubated at 37° C. for 15 minutes. The reaction is terminated and the level of product generated is measured using the ADP Glo Assay Kit (Promega, Madison Wis.). Plotting product generated versus compound concentration and using a four-parameter fit model generates an IC50 value for each compounds.

A549 K48 = A549 K48 cell intensity (lysine-48 poly-ubiquitin accumulation, immunofluorescence); format: cell-based; conditions: Homo sapiens
Experimental: Image-analysis is used to generate quantitative data from these assays that can be fit to a four-parameter sigmoid curve to derive IC50 values. Substrates of the ubiquitin-proteasome system, such as p53, are monitored after tumor cell lines are incubated with compounds for several hours. Accumulation of these proteins indicates an inhibition of proteasome-mediated degradation. Accumulation of lysine-48 chain linkage of poly-ubiquitin is also monitored by immunofluorescence as an indicator of ubiquitin-proteasome system inhibition. Both LC3 and SQSTM1 are mediators of autophagy. The localization and amounts of these proteins are monitored by immunofluorescence and report on the activity and inhibition of autophagy in response to p97 inhibition.

[1] = 20 nM p97, 20 μM ATP, 37° C., 15 minutes, read-out: p97 biochem IC50

p97, sequence (P55072 whole entry): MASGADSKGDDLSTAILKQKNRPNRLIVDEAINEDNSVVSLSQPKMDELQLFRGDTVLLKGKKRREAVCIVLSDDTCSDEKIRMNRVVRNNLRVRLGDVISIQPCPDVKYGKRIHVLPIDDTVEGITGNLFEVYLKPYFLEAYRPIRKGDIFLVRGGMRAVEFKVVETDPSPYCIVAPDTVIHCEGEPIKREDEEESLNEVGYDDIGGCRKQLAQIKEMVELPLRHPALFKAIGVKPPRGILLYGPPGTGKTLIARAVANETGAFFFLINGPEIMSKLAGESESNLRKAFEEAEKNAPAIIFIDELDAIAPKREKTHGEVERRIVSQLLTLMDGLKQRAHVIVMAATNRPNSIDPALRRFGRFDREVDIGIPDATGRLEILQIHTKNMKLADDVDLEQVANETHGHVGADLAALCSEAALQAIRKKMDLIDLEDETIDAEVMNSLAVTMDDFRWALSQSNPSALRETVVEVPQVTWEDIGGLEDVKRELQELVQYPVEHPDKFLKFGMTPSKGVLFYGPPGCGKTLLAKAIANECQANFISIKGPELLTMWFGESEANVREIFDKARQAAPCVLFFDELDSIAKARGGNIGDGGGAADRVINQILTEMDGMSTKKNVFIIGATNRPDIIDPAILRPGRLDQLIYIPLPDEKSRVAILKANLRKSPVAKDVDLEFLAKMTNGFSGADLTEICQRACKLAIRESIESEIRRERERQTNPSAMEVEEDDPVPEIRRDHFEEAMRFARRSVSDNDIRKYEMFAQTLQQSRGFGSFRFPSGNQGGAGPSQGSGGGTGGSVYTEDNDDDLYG

**Q.** For `NC(=O)NCc1cc2ccccc2n1-c1nc2c(c(NCc3ccccc3)n1)CCCC2` [({1-[4-(benzylamino)-5,6,7,8-tetrahydroquinazolin-2-yl]-1H-indol-2-yl}methyl)urea], which IC50 (p97; read-out: p97 IC50) is on record?
**A.** < 0.1 µM

**Q.** What about the IC50 (A549 K48) of the same compound?
**A.** < 10 µM

**Q.** Which results are given for `Clc1cc2ccccc2n1-c1nc2c(c(NCc3ccccc3)n1)CCCC2` [N-benzyl-2-(2-chloro-1H-indol-1-yl)-5,6,7,8-tetrahydroquinazolin-4-amine]?
**A.** IC50 (p97; read-out: p97 IC50): < 0.1 µM; IC50 (A549 K48): < 10 µM

**Q.** Which IC50 (p97; read-out: p97 IC50) does the source give for `Cc1cc2c(C#N)cccc2n1-c1nc2c(c(NCc3ccccc3)n1)CN(C)CC2` [1-[4-(benzylamino)-6-methyl-5H,6H,7H,8H-pyrido[4,3-d]pyrimidin-2-yl]-2-methyl-1H-indole-4-carbonitrile] here?
**A.** < 0.1 µM

**Q.** And the IC50 (A549 K48)?
**A.** < 10 µM

**Q.** `Cc1cc2c(C(N)=O)cccc2n1-c1nc2c(c(NCc3ccccc3)n1)COCC2` [1-[4-(benzylamino)-5H,7H,8H-pyrano[4,3-d]pyrimidin-2-yl]-2-methyl-1H-indole-4-carboxamide] was tested. Which IC50 (A549 K48) did it give?
**A.** < 10 µM

**Q.** How did the IC50 (p97; read-out: p97 IC50) turn out when `Cc1[nH]c2ccccc2c1-c1nc2c(c(NCc3ccccc3)n1)CCCC2` [N-benzyl-2-(2-methyl-1H-indol-3-yl)-5,6,7,8-tetrahydroquinazolin-4-amine] was run?
**A.** < 0.3 µM

**Q.** How did the IC50 (p97; [1]) turn out when `COc1cccc2c(NCc3ccccc3)nc(N3CCOc4ccccc43)nc12` was run?
**A.** < 5 µM

**Q.** With `Cc1cc2ccccc2n1-c1nc(NCc2ccccc2)c2cccc(C(N)=O)c2n1` as the compound, how does the IC50 (p97; [1]) read?
**A.** < 2 µM

**Q.** `CNc1nc2ccccc2n1-c1nc(NCc2ccccc2)c2cccc(OC)c2n1` was tested. Which IC50 (p97; [1]) did it give?
**A.** < 2 µM

**Q.** How did the IC50 (p97; [1]) turn out when `COc1cccc2c(NCc3ccccc3)nc(-n3c(=O)[nH]c4ccccc43)nc12` was run?
**A.** < 2 µM

**Q.** With `COc1cccc2c(NCc3ccccc3)nc(C3NCc4ccccc43)nc12` (centres unmarked) as the compound, how does the IC50 (p97; [1]) read?
**A.** < 5 µM

**Q.** `COc1cccc2c(NCc3ccccc3)nc(N(C(N)=O)c3ccccc3)nc12` was tested. Which IC50 (p97; [1]) did it give?
**A.** < 5 µM

**Q.** `COc1cc2ccccc2n1-c1nc(NCc2ccccc2)c2c(n1)C(=O)N(C(=O)OC(C)(C)C)CC2` was tested. Which IC50 (p97; [1]) did it give?
**A.** < 2 µM

**Q.** Which IC50 (p97; [1]) does the source give for `Cc1cc2ccccc2n1-c1nc2c(c(NCc3ccccc3)n1)CNCC2` here?
**A.** < 2 µM

**Q.** With `COc1cc2c(C#N)cccc2n1-c1nc2c(c(NCc3ccccc3)n1)CNCC2` [1-[4-(benzylamino)-5H,6H,7H,8H-pyrido[4,3-d]pyrimidin-2-yl]-2-methoxy-1H-indole-4-carbonitrile] as the compound, how does the IC50 (p97; read-out: p97 IC50) read?
**A.** < 0.3 µM

**Q.** How did the IC50 (p97; [1]) turn out when `CCc1cc2ccccc2n1-c1nc2c(c(NCc3ccccc3)n1)CCCC2` was run?
**A.** < 5 µM

**Q.** `Clc1cc2ccccc2n1-c1nc2c(c(NCc3ccccc3)n1)CNCC2` [N-benzyl-2-(2-chloro-1H-indol-1-yl)-5H,6H,7H,8H-pyrido[4,3-d]pyrimidin-4-amine] was tested. Which IC50 (p97; read-out: p97 IC50) did it give?
**A.** < 0.3 µM

**Q.** For `COCCOc1cccc2c(NCc3ccccc3)nc(-n3c(C)nc4ccccc43)nc12` [N-benzyl-8-(2-methoxyethoxy)-2-(2-methyl-1H-1,3-benzodiazol-1-yl)quinazolin-4-amine], which IC50 (p97; read-out: p97 IC50) is on record?
**A.** < 0.3 µM

**Q.** `COCCOc1cccc2c(NCc3ccccc3)nc(-n3c(OC)nc4ccccc43)nc12` [drawing 222] was tested. Which IC50 (p97; [1]) did it give?
**A.** < 2 µM

**Q.** `COc1cccc2c(NCc3ccccc3)nc(-n3c(OC)nc4ccccc43)nc12` was tested. Which IC50 (p97; [1]) did it give?
**A.** < 2 µM

**Q.** Which IC50 (p97; [1]) does the source give for `COc1cccc2c(NCc3ccccc3)nc(-n3ccc4ccccc43)nc12` here?
**A.** < 2 µM

**Q.** How did the IC50 (p97; [1]) turn out when `COc1cc2ccccc2n1-c1nc2c(c(NCc3ccccc3)n1)CCCC2` [drawing 226] was run?
**A.** < 2 µM

**Q.** With `Cc1cc2ccccc2n1-c1nc(NCc2ccccc2)c2cccc(C#N)c2n1` as the compound, how does the IC50 (p97; [1]) read?
**A.** < 2 µM

**Q.** Which IC50 (p97; read-out: p97 IC50) does the source give for `COc1cccc2c(NCc3ccccc3)nc(-n3c(/C=C\C#N)cc4ccccc43)nc12` [(2Z)-3-{1-[4-(benzylamino)-8-methoxyquinazolin-2-yl]-1H-indol-2-yl}prop-2-enenitrile] here?
**A.** < 0.3 µM

**Q.** `Cc1cc2ccccc2n1-c1nc2c(c(NCc3ccccc3)n1)CN(C(C)C)CC2` [N-benzyl-2-(2-methyl-1H-indol-1-yl)-6-(propan-2-yl)-5H,6H,7H,8H-pyrido[4,3-d]pyrimidin-4-amine] was tested. Which IC50 (p97; read-out: p97 IC50) did it give?
**A.** < 0.3 µM

**Q.** How did the IC50 (p97; [1]) turn out when `Cc1cc2ccccc2n1-c1nc2c(c(NCc3ccccc3)n1)CNC2` was run?
**A.** < 2 µM

**Q.** For `COCCOc1cccc2c(NCc3ccccc3)nc(-n3c(N)nc4ccccc43)nc12`, which IC50 (p97; [1]) is on record?
**A.** < 2 µM

**Q.** How did the IC50 (p97; read-out: p97 IC50) turn out when `COCCOc1cccc2c(NCc3ccccc3)nc(-n3c(C)cc4c(C#N)cccc43)nc12` [1-[4-(benzylamino)-8-(2-methoxyethoxy)quinazolin-2-yl]-2-methyl-1H-indole-4-carbonitrile] was run?
**A.** < 0.03 µM

**Q.** For `Cc1cc2c(Cl)cccc2n1-c1nc2c(c(NCc3ccccc3)n1)CNCC2` [N-benzyl-2-(4-chloro-2-methyl-1H-indol-1-yl)-5H,6H,7H,8H-pyrido[4,3-d]pyrimidin-4-amine], which IC50 (p97; read-out: p97 IC50) is on record?
**A.** < 0.3 µM

**Q.** For `CC(N)c1cc2ccccc2n1-c1nc2c(c(NCc3ccccc3)n1)CCCC2` (centres unmarked), which IC50 (p97; [1]) is on record?
**A.** < 2 µM

**Q.** With `COc1cccc2c(NCc3ccccc3)nc(-n3c(/C=C/C#N)cc4ccccc43)nc12` [drawing 242] as the compound, how does the IC50 (p97; [1]) read?
**A.** < 2 µM

**Q.** With `COc1cccc2c(NCc3ccccc3)nc(Nc3ncc[nH]3)nc12` as the compound, how does the IC50 (p97; [1]) read?
**A.** < 10 µM

**Q.** For `COCCOc1cccc2c(NCc3ccccc3)nc(-n3c(C(C)N)cc4ccccc43)nc12` (centres unmarked) [2-[2-(1-aminoethyl)-1H-indol-1-yl]-N-benzyl-8-(2-methoxyethoxy)quinazolin-4-amine], which IC50 (p97; read-out: p97 IC50) is on record?
**A.** < 0.3 µM

**Q.** Which IC50 (p97; read-out: p97 IC50) does the source give for `CCN1CCc2nc(-n3c(C)cc4c(C#N)cccc43)nc(NCc3ccccc3)c2C1` [1-[4-(benzylamino)-6-ethyl-5H,6H,7H,8H-pyrido[4,3-d]pyrimidin-2-yl]-2-methyl-1H-indole-4-carbonitrile] here?
**A.** < 0.1 µM

**Q.** For `CCC1=NC(C)=C(C)C1c1nc(NCc2ccccc2)c2cccc(OC)c2n1` (centres unmarked), which IC50 (p97; [1]) is on record?
**A.** < 25 µM

**Q.** Which IC50 (p97; [1]) does the source give for `COc1cccc2c(NCc3ccccc3)nc(-n3c(/C=C(/C#N)C(N)=O)cc4ccccc43)nc12` [drawing 243] here?
**A.** < 2 µM

**Q.** Which IC50 (p97; read-out: p97 IC50) does the source give for `c1ccc(CNc2nc(-n3c(N4CCOCC4)nc4ccccc43)nc3c2CCCC3)cc1` [N-benzyl-2-[2-(morpholin-4-yl)-1H-1,3-benzodiazol-1-yl]-5,6,7,8-tetrahydroquinazolin-4-amine] here?
**A.** < 0.3 µM

**Q.** For `COc1cccc2c(NCc3ccccc3)nc(-n3c(C)cc4ccccc43)nc12`, which IC50 (p97; [1]) is on record?
**A.** < 2 µM

**Q.** Which IC50 (p97; [1]) does the source give for `COc1cccc2c(NCc3ccccc3)nc(-n3c(/C=C/S(C)(=O)=O)cc4ccccc43)nc12` [drawing 244] here?
**A.** < 2 µM

**Q.** `COc1cccc2c(NCc3ccccc3)nc(N3C(=O)Cc4ccccc43)nc12` was tested. Which IC50 (p97; [1]) did it give?
**A.** < 2 µM

**Q.** How did the IC50 (p97; [1]) turn out when `COc1nc2ccccc2n1-c1nc2c(c(NCc3ccccc3)n1)CNCC2` was run?
**A.** < 2 µM

**Q.** `COCCOc1cccc2c(NCc3ccccc3)nc(C3C(ON)=Nc4ccccc43)nc12` (centres unmarked) was tested. Which IC50 (p97; [1]) did it give?
**A.** < 2 µM

**Q.** `COC1=Nc2ccccc2C1c1nc(NCc2ccc(F)cc2)c2cccc(OC)c2n1` (centres unmarked) was tested. Which IC50 (p97; [1]) did it give?
**A.** < 2 µM

**Q.** For `Cc1nc2ccccn2c1-c1nc2c(c(NCc3ccccc3)n1)CCCC2` [N-benzyl-2-{2-methylimidazo[1,2-a]pyridin-3-yl}-5,6,7,8-tetrahydroquinazolin-4-amine], which IC50 (p97; read-out: p97 IC50) is on record?
**A.** < 0.3 µM

**Q.** `COCCOc1cccc2c(NCc3ccccc3)nc(-n3c(OC)cc4c(C#N)cccc43)nc12` [1-[4-(benzylamino)-8-(2-methoxyethoxy)quinazolin-2-yl]-2-methoxy-1H-indole-4-carbonitrile] was tested. Which IC50 (p97; read-out: p97 IC50) did it give?
**A.** < 0.1 µM

**Q.** For `Cc1cc2c(C#N)cccc2n1-c1nc2c(c(NCc3ccccc3)n1)COCC2` [1-[4-(benzylamino)-5H,7H,8H-pyrano[4,3-d]pyrimidin-2-yl]-2-methyl-1H-indole-4-carbonitrile], which IC50 (p97; read-out: p97 IC50) is on record?
**A.** < 0.1 µM

**Q.** `CC(=O)N1CCc2c(nc(C3C(C)=Cc4ccccc43)nc2NCc2ccccc2)C1` (centres unmarked) was tested. Which IC50 (p97; [1]) did it give?
**A.** < 2 µM

**Q.** How did the IC50 (p97; [1]) turn out when `COc1cccc2c(NCc3ccccc3)nc(-n3c(CN)cc4ccccc43)nc12` was run?
**A.** < 2 µM
